Publication PMC9687209 (2022)

Experiments:
[1] = test system: C1/htC1 (DNA, aptamer) ATTGGCACTCCACGCATAGGCCAACATGATGTTCCGTCATTTTGAGGTGTGTACACCGTGCCTATGCGTGCTACCGTGAA; experiment: BLI; conditions: 177.7 mM Na+, 0.492 mM Mg2+; 0.2 g/L KCl, 0.2 g/L KH2PO4, 0.1 g/L CaCl2; selection buffer (NaCl/phosphate), pH 7.4, 25 °C
[2] = test system: C2 (DNA, aptamer) ATTGGCACTCCACGCATAGGGGATAACGGGTTGATGGTACTTCTATCTATCGCGTTGTGCCCTATGCGTGCTACCGTGAA; experiment: BLI; conditions: 177.7 mM Na+, 0.492 mM Mg2+; 0.2 g/L KCl, 0.2 g/L KH2PO4, 0.1 g/L CaCl2; selection buffer (NaCl/phosphate), pH 7.4, 25 °C
[3] = test system: C12/htC2 (DNA, aptamer) ATTGGCACTCCACGCATAGGGACATCGAGAAGAATCCTGATACGACTTGGCTTTGCTGGCCCTATGCGTGCTACCGTGAA; experiment: BLI; conditions: 177.7 mM Na+, 0.492 mM Mg2+; 0.2 g/L KCl, 0.2 g/L KH2PO4, 0.1 g/L CaCl2; selection buffer (NaCl/phosphate), pH 7.4, 25 °C
[4] = test system: C53 (DNA, aptamer) ATTGGCACTCCACGCATAGGGTAAAGTACGTATGTCATGCACATGCCGTATTCTCTTTGCCCTATGCGTGCTACCGTGAA; experiment: BLI; conditions: 177.7 mM Na+, 0.492 mM Mg2+; 0.2 g/L KCl, 0.2 g/L KH2PO4, 0.1 g/L CaCl2; selection buffer (NaCl/phosphate), pH 7.4, 25 °C; NB [sic]; highest concentration not stated
[5] = test system: C58/htC3 (DNA, aptamer) ATTGGCACTCCACGCATAGGCCAAGGTGTCAATCTTGAATAGCTGTGTAACGTCTATGTGCCTATGCGTGCTACCGTGAA; experiment: BLI; conditions: 177.7 mM Na+, 0.492 mM Mg2+; 0.2 g/L KCl, 0.2 g/L KH2PO4, 0.1 g/L CaCl2; selection buffer (NaCl/phosphate), pH 7.4, 25 °C
[6] = test system: C66 (DNA, aptamer) ATTGGCACTCCACGCATAGGGGTGGTCTTCTGGGTAATCCCCGACTACCCTTATGCCGGCCCTATGCGTGCTACCGTGAA; experiment: BLI; conditions: 177.7 mM Na+, 0.492 mM Mg2+; 0.2 g/L KCl, 0.2 g/L KH2PO4, 0.1 g/L CaCl2; selection buffer (NaCl/phosphate), pH 7.4, 25 °C
[7] = test system: C87 (DNA, aptamer) ATTGGCACTCCACGCATAGGGGAAGCTGCTCTCATCAATAAAAAATGAGACGGAGGTTACCCTATGCGTGCTACCGTGAA; experiment: BLI; conditions: 177.7 mM Na+, 0.492 mM Mg2+; 0.2 g/L KCl, 0.2 g/L KH2PO4, 0.1 g/L CaCl2; selection buffer (NaCl/phosphate), pH 7.4, 25 °C
[8] = test system: C100/htC4 (DNA, aptamer) ATTGGCACTCCACGCATAGGGAATGGACCCGGTATAATTCCCTCAAGAGTGCCAATTTCACCTATGCGTGCTACCGTGAA; experiment: BLI; conditions: 177.7 mM Na+, 0.492 mM Mg2+; 0.2 g/L KCl, 0.2 g/L KH2PO4, 0.1 g/L CaCl2; selection buffer (NaCl/phosphate), pH 7.4, 25 °C
[9] = test system: C116 (DNA, aptamer) ATTGGCACTCCACGCATAGGGATCTCATAACCAGTCTCTTTGACTGATGTTAGTAAGGTCCCTATGCGTGCTACCGTGAA; experiment: BLI; conditions: 177.7 mM Na+, 0.492 mM Mg2+; 0.2 g/L KCl, 0.2 g/L KH2PO4, 0.1 g/L CaCl2; selection buffer (NaCl/phosphate), pH 7.4, 25 °C
[10] = test system: htC5 (DNA, aptamer) ATTGGCACTCCACGCATAGGGGAGGGCCGGTTGAACTGTAATGTGTAAACCACGCGCTACCCTATGCGTGCTACCGTGAA; experiment: BLI; conditions: 177.7 mM Na+, 0.492 mM Mg2+; 0.2 g/L KCl, 0.2 g/L KH2PO4, 0.1 g/L CaCl2; selection buffer (NaCl/phosphate), pH 7.4, 25 °C; NB [sic]; highest concentration not stated
[11] = test system: Random Sequence (DNA, single strand) ATTGGCACTCCACGCATAGGATTCCGGCTAATCGACTGACTGCCGGTACGATGCAGTCAGCCTATGCGTGCTACCGTGAA; experiment: BLI; conditions: 177.7 mM Na+, 0.492 mM Mg2+; 0.2 g/L KCl, 0.2 g/L KH2PO4, 0.1 g/L CaCl2; selection buffer, pH 7.4, 25 °C; NB [sic]; 6.25 μM tested in Figure 4
[12] = test system: C1-s (DNA, aptamer) CCAACATGATGTTCCGTCATTTTGAGGTGTGTACACCGTG; experiment: BLI; conditions: 177.7 mM Na+, 0.492 mM Mg2+; 0.2 g/L KCl, 0.2 g/L KH2PO4, 0.1 g/L CaCl2; selection buffer (NaCl/phosphate), pH 7.4, 25 °C
[13] = test system: C1-a (DNA, aptamer) CAACATGATGTTCCGTCATTTTG; experiment: BLI; conditions: 177.7 mM Na+, 0.492 mM Mg2+; 0.2 g/L KCl, 0.2 g/L KH2PO4, 0.1 g/L CaCl2; selection buffer (NaCl/phosphate), pH 7.4, 25 °C
[14] = test system: C1-b (DNA, aptamer) GGTGTGTACACC; experiment: BLI; conditions: 177.7 mM Na+, 0.492 mM Mg2+; 0.2 g/L KCl, 0.2 g/L KH2PO4, 0.1 g/L CaCl2; selection buffer (NaCl/phosphate), pH 7.4, 25 °C
[15] = test system: C1-c (DNA, aptamer) CCAACATGATGTTCCGTCATTTTGAGCGTG; experiment: BLI; conditions: 177.7 mM Na+, 0.492 mM Mg2+; 0.2 g/L KCl, 0.2 g/L KH2PO4, 0.1 g/L CaCl2; selection buffer (NaCl/phosphate), pH 7.4, 25 °C
[16] = test system: C1-d (DNA, aptamer) CCGAGGTGTGTACACCGTG; experiment: BLI; conditions: 177.7 mM Na+, 0.492 mM Mg2+, 0.2 g/L KCl, 0.2 g/L KH2PO4, 0.1 g/L CaCl2, pH 7.4, 25 °C
[17] = test system: C1-d (DNA, aptamer) CCGAGGTGTGTACACCGTG; experiment: BLI response, four-parameter logistic fit; conditions: 177.7 mM Na+, 0.492 mM Mg2+; 0.2 g/L KCl, 0.2 g/L KH2PO4, 0.1 g/L CaCl2; selection buffer, pH 7.4, 25 °C; calibration curve 0.625-30 μM DA; Hill slope 1.351

KD [1] [µM]	KD [2] [µM]	KD [3] [µM]	binding [4]	KD [5] [µM]	KD [6] [µM]	KD [7] [µM]	KD [8] [µM]	KD [9] [µM]	binding [10]	binding [11]	KD [12] [µM]	KD [13] [µM]	KD [14] [µM]	KD [15] [µM]	KD ([16]; selection buffer (NaCl/phosphate), kon 2.94 × 10^5 1/Ms, kdis 5.13 × 10^-2 1/s) [µM]	EC50 [17] [µM]	binding ([16]; selection buffer, 6.25 μM tested)	Compound
1.69	20.3	5.21	no	6.33	22.7	5.04	3.25	11.7	no	no	1.5 ± 0.113	6.9 ± 0.628	0.167 ± 0.00933	4.9 ± 0.312	0.109 ± 0.00931	12.57		C/C(=C/C=C/[C@@H](C)C(=O)O)[C@H]1CN[C@H](C(=O)O)[C@H]1CC(=O)O
																	no	C=C1[C@@H](O)[C@@H]2O[C@]3(CC[C@H](/C=C/[C@@H](C)[C@@H]4CC(C)=C[C@@]5(O[C@H](C[C@@](C)(O)C(=O)O)CC[C@H]5O)O4)O3)CC[C@H]2O[C@@H]1[C@@H](O)C[C@H](C)[C@H]1O[C@@]2(CCCCO2)CC[C@H]1C
